The results in this text go back to patent US8168638B2, “Pyrazinecarboxamide derivatives and plant disease controlling agents containing the same” (Nihon Nohyaku Co., Ltd., priority 2005, dated 2012).

The subject of this assay is Blumeria graminis f. sp. hordei. As to the kind of experiment: Test on the controlling effect against powdery mildew of barley plant. Particulars: barley plant (Kantoh No. 6), foliar application, active-ingredient concentration 200 ppm, application rate 50 mL, 7 days after inoculation. It is filed as in vivo. The text has this:
Equation (1): Protective value (%)=A/B×100 (1) where: • A; [(Ratio of the afflicted spotted leaf surface area in non-treated section to the total leaf surface area)−(Ratio of the afflicted spotted leaf surface area in treated section to the total leaf surface area)] • B; (Ratio of the afflicted spotted leaf surface area in non-treated section to the total leaf surface area) Criteria of Judgment: 0: Less than […] in protective value 1: 10 to 19% in protective value 2: 20 to 29% in protective value 3: 30 to 39% in protective value 4: 40 to 49% in protective value 5: 50 to 59% in protective value 6: 60 to 69% in protective value 7: 70 to 79% in protective value 8: 80 to 89% in protective value 9: 90 to 99% in protective value 10: 100% in protective value A one-leaf aged barley plant (the cultivar: Kantoh No. 6) raised as a seedling in a pot of 6 cm in diameter was subjected to foliar application with a diluted emulsion of the emulsifiable concentrate of the compound of the present invention prepared in accordance with Agrochemical Formulation Example 1, which diluted emulsion was produced by diluting the concentrate with water to the specifically determined volume. […] Seven days after the inoculation, the controlling effect was assessed according the criteria of judgment as set forth in Test Example 1.

`O=C(Nc1ccccc1-c1ccc(Cl)cc1)c1cccnc1Cl` [Control Compound C, 2-Chloro-N-(4′-chlorobiphenyl-2-yl)-nicotinamide]: the “controlling effect assessed according to the criteria of judgment” value was 4 (40 to 49% in protective value).
